Measured values as given in article PMC12704579, “New Anticancer 4‐Aryldihydropyrimidinone‐5‐Carboxylates Targeting Hsp90” (Chemical Biology & Drug Design, 2025).
“And” between values parts separate entries of the source, which are not always exact repeats. Equal entries are not always repeated.

Experiments:
[1] = test system: HCC1954, MCF-7 and HEK-293 cells; assay: Growth inhibition assay (CellTitre-Blue endpoint), 72 h incubation; type: cell-based, human; conditions: paclitaxel positive control, Figure 3
Procedure: Cells were cultured in 96‐well plates in 90 μL at a seeding density of 1 × 10^6 cells per well. Compound samples were prepared at different concentrations (1 mM, 100 μM, 10 μM, 1 μM, 100 nM, 10 nM) and 10 μL of each concentration was seeded in each well. Two different negative controls were used: DMSO 0.01% and 0.001%. Paclitaxel (30% w/v) was used as a positive control. Cells were treated for 24 h after which 20 μL of CellTitre‐Blue reagent (Promega, Southampton, UK) was added and incubated for 2 h at 37°C in 5% CO2. Fluorescence was measured at 560/590 nm on a Fluorostar Optima plate reader (BMG Labtech, Bucks, UK). Assay end points were normalised to 0% (DMSO only) and fitted to a semilog plot using at least n = 3 technical replicates (n = 6 for DMSO control and paclitaxel control) and N = 3 independent replicates. The curve fit was performed using the GraphPad Prism software and the standard Hill equation. […]
FIGURE 3 Growth inhibition assay (CellTitre‐Blue endpoint) in human breast cancer cell lines HCC1954 and MCF‐7, and non‐tumorigenic HEK‐293 cells for hit compounds 5d and 5e (72 h incubation). Growth inhibition is represented by the percentage of relative fluorescence units standardised to DMSO control. […]

Caco-2 cell model = assay: Caco-2 membrane permeability (Cyprotex); type: in vitro ADME
Procedure: (§1) All the selected analogues were calculated to be compliant with the Lipinski rule‐of‐five guidelines for oral bioavailability. Furthermore, in vitro ADME (absorption, distribution, metabolism, excretion) properties were assessed as an outsourced service (Cyprotex Discovery Ltd., UK; part of the EvoTec Group); profiling membrane permeability (Caco‐2 cell model), hERG channel cardiotoxicity, human microsomal stability and turbidometric solubility (Table 4).

[2] = Caco-2 membrane permeability (Cyprotex); type: in vitro ADME; conditions: human, Caco-2
Procedure: as §1

HEK-293 cells = assay: CellTiter-Blue cell viability assay, HEK-293 (24 h); type: cell-based, human; conditions: for GI50: Homo sapiens, HEK293, 24 h incubation time
Procedure: (§2) Human Embryonic Kidney cells (HEK‐293) and human breast cancer cells (MCF‐7, MDA‐MB‐231 and HCC1954) were cultured in complete growth media: […] 1X (Gibco); 10% v/v Fetal Bovine Serum (FBS, Sigma Dorset UK) and L‐glutamine (2 mM, Invitrogen). SW‐480‐WT cells were maintained in selective media made up of Dulbecco's Modified Eagle Medium (Gibco), enriched with […] of Geneticin Selective Antibiotic (G418 Sulfate; Gibco, Thermo Fisher). Cells were incubated at a 5% CO2 atmosphere at 37°C.
(§3) Cells were cultured in 96‐well plates in 90 μL at a seeding density of 1 × 10^6 cells per well. Compound samples were prepared at different concentrations (1 mM, 100 μM, 10 μM, 1 μM, 100 nM, 10 nM) and 10 μL of each concentration was seeded in each well. Two different negative controls were used: DMSO 0.01% and 0.001%. Paclitaxel (30% w/v) was used as a positive control. Cells were treated for 24 h after which 20 μL of CellTitre‐Blue reagent (Promega, Southampton, UK) was added and incubated for 2 h at 37°C in 5% CO2. Fluorescence was measured at 560/590 nm on a Fluorostar Optima plate reader (BMG Labtech, Bucks, UK). Assay end points were normalised to 0% (DMSO only) and fitted to a semilog plot using at least n = 3 technical replicates (n = 6 for DMSO control and paclitaxel control) and N = 3 independent replicates. The curve fit was performed using the GraphPad Prism software and the standard Hill equation.
(§4) In view of previous reports on Hsp90 inhibitors and their effects on cancer cell viability (Eachkoti et al. [2014]) and clonogenicity (Kinzel et al. [2016]), new compounds were tested for inhibition of cell viability within both non‐tumourigenic (HEK‐293) and breast cancer cell lines (MDA‐MB‐231) at a fixed concentration of 10 μM. The well‐established CellTiter‐Blue endpoint assay was used to assess cell viability. New compounds were also assessed in a colony forming assay (MCF‐7 breast cancer cell line), used as an efficacy screening to provide an indication of the inhibition of clonogenicity for these small molecules (Table 1).

[3] = as above; type: cell-based, human; conditions: human, HEK-293 cells, CellTiter-Blue, 24 h incubation, 10 μM test compound, standardised to DMSO control
Procedure: as §2, §3, §4

MCF-7 cells = assay: Colony forming assay, MCF-7; type: cell-based, human; conditions: for IC50: Homo sapiens, MCF7, 168 h, 7 days; for % Clonogenicity (MCF-7, 10 μM): percentage of survival colonies, 7-day incubation, standardised to DMSO control
Procedure: as §2
Cells were seeded in a 12‐well plate at 400 cells per well. One hour after the seeding of the cells, compounds (1 mM, 100 μM, 10 μM, 1 μM, 100 nM, 10 nM) or vehicle were added into the wells in triplicate (DMSO vehicle 0.1% and 1%). After 7 days, colonies were stained with 350 μL of crystal violet solution, incubated for 30 min at room temperature, then wells were washed in water and dried. At least the best 3 independent experiments out of 5 independent repeats were used to perform the statistical analysis of the results. Colonies were counted by GelCount Colony Counter (Oxford Optronix Ltd.) using the GelCount 1.1.8.0 software. Assay end points were normalised to 0% (DMSO only) and fitted to a semi‐log plot using at least n = 3 technical replicates (n = 6 for DMSO control and N = 3 independent replicates). The curve fit was performed using GraphPad Prism.
as §4

[4] = Human microsomal stability (Cyprotex); type: in vitro ADME; conditions: human microsomes; for microsomal CLint: read-out: Metabolic stability (human microsomes) CLint; for half-life: read-out: Metabolic stability (human microsomes) Half-life
Procedure: as §1

Row | SMILES | Growth inhibitory effect / effect on cell viability, longer incubation [1] | Caco-2 permeability Efflux ratio (Caco-2 cell model) | efflux ratio [2] | GI50 (HEK-293 cells) | viability at 24 h, 10 µM [3] | IC50 (MCF-7 cells) | % Clonogenicity (MCF-7, 10 μM) (MCF-7 cells) | microsomal CLint [4] | half-life [4] | % Viability (HEK-293, 10 μM) (HEK-293 cells; CellTiter-Blue, 24 h incubation, 10 μM test compound, standardised to DMSO control, 10 µM)
1 | COc1ccc(C2NC(=O)NC(C)=C2C(=O)OCc2ccc3c(c2)OCO3)c(F)c1 (stereo not shown) [Compound 5d, Benzo[d][1,3]dioxol‐5‐ylmethyl‐4‐(2‐Fluoro‐4‐Methoxyphenyl)‐6‐Methyl‐2‐Oxo‐1,2,3,4‐Tetrahydropyrimidine‐5‐Carboxylate] | devoid of significant effects on cell viability | 2.26 | > 2 | 92.4 µM | 99.9 ± 4.53% | 290 nM | 49.75% and 49.75 ± 4.35% | 34.6 µL/min/mg | 40.1 min | –
2 | COc1ccc(COC(=O)C2=C(C)NC(=O)NC2c2ccc(Cl)cc2)cc1C (stereo not shown) [Compound 5e, 4‐Methoxy‐3‐Methylbenzyl‐4‐(4‐Chlorophenyl)‐6‐Methyl‐2‐Oxo‐1,2,3,4‐Tetrahydropyrimidine‐5‐Carboxylate] | comparable to the cytotoxic drug control paclitaxel | 2.74 | > 2 | 86.3 µM | 82% | 910 nM | 59.96 ± 1.95% | 108 µL/min/mg | 12.8 min | 82.07 ± 1.28%
